How the values were obtained:
Experiment in all cases: Kinase inhibition, percentage of activity at 0.5 μM, standardized radiometric kinase assays;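 also: each kinase tested separately, with activity read as 33P-labelled substrate protein captured on filters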
Format in all cases: biochemical
[1] = target: protein kinases (Homo sapiens, UniProt O15530); details: PDK1(h)
[2] = target: protein kinases (Homo sapiens, UniProt O43293); details: ZIPK(h)
[3] = target: protein kinases (Homo sapiens, UniProt O43318); details: TAK1(h)
[4] = target: protein kinases (Homo sapiens, UniProt P00519); details: Abl(h)
[5] = target: protein kinases (Homo sapiens, UniProt P04629); details: TrkA(h)
[6] = target: protein kinases (Homo sapiens, UniProt P07332); details: Fes(h)
[7] = target: protein kinases (Homo sapiens, UniProt P07333); details: Fms(h)
[8] = target: protein kinases (Homo sapiens, UniProt P07947); details: Yes(h)
[9] = target: protein kinases (Homo sapiens, UniProt P07948); details: Lyn(h)
Sequence of protein kinases (Homo sapiens, UniProt P07948) (P07948 2-512 limits assumed): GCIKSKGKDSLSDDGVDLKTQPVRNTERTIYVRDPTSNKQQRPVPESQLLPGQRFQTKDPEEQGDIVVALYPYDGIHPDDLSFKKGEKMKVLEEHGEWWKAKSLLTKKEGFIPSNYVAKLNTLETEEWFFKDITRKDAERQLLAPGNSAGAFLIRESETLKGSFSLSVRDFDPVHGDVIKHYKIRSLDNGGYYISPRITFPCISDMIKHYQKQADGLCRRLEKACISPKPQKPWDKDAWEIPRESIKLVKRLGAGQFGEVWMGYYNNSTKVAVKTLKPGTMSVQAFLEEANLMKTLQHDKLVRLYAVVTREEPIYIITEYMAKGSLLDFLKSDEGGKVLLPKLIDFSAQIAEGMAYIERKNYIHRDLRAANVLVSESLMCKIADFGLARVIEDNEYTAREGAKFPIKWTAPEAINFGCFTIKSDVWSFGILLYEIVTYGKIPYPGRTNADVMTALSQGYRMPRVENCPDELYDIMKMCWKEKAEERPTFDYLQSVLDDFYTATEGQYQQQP

[10] = target: protein kinases (Homo sapiens, UniProt P08631); details: Hck(h)
[11] = target: protein kinases (Homo sapiens, UniProt P08922); details: Ros(h)
[12] = target: protein kinases (Homo sapiens, UniProt P09619); details: PDGFRβ(h)
[13] = target: protein kinases (Homo sapiens, UniProt P10721); details: cKit(h)
[14] = target: protein kinases (Homo sapiens, UniProt P10721, D816H); details: cKit(D816H)(h)
[15] = target: protein kinases (Homo sapiens, UniProt P12931); details: Src(1-530)(h)
[16] = target: protein kinases (Homo sapiens, UniProt P16234, D842V); details: PDGFRα(D842V)(h)
[17] = target: protein kinases (Homo sapiens, UniProt P17612); details: PKA(h)
[18] = target: protein kinases (Homo sapiens, UniProt P23443); details: p70S6K(h)
[19] = target: protein kinases (Homo sapiens, UniProt P31749); details: PKBα(h)
[20] = target: protein kinases (Homo sapiens, UniProt P35916); details: Flt4(h)
Sequence of protein kinases (Homo sapiens, UniProt P35916) (P35916 25-1363 limits assumed): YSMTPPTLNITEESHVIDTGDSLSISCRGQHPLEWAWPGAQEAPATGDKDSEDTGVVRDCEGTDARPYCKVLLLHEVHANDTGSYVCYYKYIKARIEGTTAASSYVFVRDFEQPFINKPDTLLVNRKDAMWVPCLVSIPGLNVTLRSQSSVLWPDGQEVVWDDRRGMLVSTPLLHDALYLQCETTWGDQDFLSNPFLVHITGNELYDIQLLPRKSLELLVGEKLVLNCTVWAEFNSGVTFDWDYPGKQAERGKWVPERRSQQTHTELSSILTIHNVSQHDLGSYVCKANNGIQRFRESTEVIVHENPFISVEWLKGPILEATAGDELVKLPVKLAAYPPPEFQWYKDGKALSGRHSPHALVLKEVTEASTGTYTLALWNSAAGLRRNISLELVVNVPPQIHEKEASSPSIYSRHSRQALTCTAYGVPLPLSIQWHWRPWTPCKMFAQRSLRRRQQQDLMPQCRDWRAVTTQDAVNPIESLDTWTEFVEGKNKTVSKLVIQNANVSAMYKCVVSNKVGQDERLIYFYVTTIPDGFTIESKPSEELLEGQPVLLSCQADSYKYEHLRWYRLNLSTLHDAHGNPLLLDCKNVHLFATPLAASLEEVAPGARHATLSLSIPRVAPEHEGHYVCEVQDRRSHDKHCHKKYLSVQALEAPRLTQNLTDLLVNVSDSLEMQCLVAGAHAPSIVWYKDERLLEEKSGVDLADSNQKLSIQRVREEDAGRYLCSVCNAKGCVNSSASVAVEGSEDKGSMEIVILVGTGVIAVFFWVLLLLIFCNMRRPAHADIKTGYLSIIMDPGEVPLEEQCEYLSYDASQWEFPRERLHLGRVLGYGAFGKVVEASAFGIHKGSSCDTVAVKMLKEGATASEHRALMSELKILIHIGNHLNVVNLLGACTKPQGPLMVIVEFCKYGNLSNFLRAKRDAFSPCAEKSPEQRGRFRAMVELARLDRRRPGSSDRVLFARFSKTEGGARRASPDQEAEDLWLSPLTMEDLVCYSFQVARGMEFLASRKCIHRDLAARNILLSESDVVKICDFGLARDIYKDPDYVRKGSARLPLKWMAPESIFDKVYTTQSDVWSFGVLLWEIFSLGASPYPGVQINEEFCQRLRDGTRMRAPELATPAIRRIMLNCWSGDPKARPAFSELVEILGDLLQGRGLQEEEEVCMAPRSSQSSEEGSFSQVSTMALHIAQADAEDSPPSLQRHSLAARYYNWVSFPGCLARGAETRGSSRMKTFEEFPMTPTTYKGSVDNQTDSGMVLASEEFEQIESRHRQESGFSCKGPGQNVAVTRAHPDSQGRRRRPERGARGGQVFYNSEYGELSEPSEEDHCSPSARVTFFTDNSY

[21] = target: protein kinases (Homo sapiens, UniProt P36888, D835Y); details: Flt3(D835Y)(h)
[22] = target: protein kinases (Homo sapiens, UniProt P43403); details: ZAP-70(h)
[23] = target: protein kinases (Homo sapiens, UniProt P50613); details: CDK7/cyclinH/MAT1(h)
Sequence of protein kinases (Homo sapiens, UniProt P50613) (P50613 2-346 limits assumed): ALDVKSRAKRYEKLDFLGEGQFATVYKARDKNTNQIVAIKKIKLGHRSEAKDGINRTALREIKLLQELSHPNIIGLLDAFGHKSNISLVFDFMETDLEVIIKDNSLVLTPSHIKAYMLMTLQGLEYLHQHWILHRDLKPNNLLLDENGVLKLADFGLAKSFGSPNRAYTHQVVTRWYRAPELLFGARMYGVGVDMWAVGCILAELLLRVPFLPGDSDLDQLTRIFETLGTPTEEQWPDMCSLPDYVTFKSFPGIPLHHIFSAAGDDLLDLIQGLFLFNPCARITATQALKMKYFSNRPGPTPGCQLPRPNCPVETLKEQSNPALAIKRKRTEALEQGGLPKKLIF

[24] = target: protein kinases (Homo sapiens, UniProt P51813); details: Bmx(h)
[25] = target: protein kinases (Homo sapiens, UniProt P51955); details: NEK2(h)
[26] = target: protein kinases (Homo sapiens, UniProt P54760); details: EphB4(h)
[27] = target: protein kinases (Homo sapiens, UniProt Q02750); details: MEK1(h)
[28] = target: protein kinases (Homo sapiens, UniProt Q04759); details: PKC0(h)
[29] = target: protein kinases (Homo sapiens, UniProt Q04912); details: Ron(h)
Sequence of protein kinases (Homo sapiens, UniProt Q04912) (Q04912 25-304 limits assumed): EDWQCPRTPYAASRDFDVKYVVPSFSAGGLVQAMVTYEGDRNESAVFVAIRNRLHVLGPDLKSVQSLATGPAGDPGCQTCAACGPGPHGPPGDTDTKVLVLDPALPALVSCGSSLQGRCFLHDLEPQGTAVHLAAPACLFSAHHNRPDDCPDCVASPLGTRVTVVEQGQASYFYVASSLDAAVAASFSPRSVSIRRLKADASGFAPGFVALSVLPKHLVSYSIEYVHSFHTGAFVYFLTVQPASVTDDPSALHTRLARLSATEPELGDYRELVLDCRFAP
Sequence of protein kinases (Homo sapiens, UniProt Q04912) (Q04912 310-1400 limits assumed): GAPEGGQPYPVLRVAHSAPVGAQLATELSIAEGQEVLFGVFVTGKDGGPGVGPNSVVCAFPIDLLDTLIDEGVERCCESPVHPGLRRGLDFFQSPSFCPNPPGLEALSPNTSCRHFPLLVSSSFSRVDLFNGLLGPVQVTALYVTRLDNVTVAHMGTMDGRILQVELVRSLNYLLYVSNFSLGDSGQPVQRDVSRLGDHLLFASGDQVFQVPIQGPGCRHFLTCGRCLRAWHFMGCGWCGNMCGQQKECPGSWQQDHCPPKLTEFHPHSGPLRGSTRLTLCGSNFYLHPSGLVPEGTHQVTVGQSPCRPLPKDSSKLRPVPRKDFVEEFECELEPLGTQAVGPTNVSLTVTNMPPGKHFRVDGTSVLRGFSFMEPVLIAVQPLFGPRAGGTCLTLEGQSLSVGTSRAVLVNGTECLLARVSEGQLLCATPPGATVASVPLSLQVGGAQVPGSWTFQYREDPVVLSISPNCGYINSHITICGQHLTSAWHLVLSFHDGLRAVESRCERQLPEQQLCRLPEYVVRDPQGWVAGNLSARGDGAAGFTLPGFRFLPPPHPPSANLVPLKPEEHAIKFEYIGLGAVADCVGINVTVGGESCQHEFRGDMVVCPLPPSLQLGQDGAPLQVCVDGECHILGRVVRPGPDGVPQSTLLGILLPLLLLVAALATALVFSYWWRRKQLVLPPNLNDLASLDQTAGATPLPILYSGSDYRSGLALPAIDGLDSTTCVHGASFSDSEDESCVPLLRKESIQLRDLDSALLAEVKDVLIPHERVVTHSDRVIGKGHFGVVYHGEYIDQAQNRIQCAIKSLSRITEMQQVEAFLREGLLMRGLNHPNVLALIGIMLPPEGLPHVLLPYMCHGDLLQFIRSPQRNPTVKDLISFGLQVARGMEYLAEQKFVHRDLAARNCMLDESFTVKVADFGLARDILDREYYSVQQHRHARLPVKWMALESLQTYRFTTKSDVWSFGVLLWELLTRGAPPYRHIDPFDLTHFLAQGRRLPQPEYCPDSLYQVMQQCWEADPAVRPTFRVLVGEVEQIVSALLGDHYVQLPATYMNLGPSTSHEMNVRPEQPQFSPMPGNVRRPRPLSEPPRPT

[30] = target: protein kinases (Homo sapiens, UniProt Q12866); details: Mer(h)
[31] = target: protein kinases (Homo sapiens, UniProt Q13464); details: ROCK-I(h)
Sequence of protein kinases (Homo sapiens, UniProt Q13464) (Q13464 2-1354 limits assumed): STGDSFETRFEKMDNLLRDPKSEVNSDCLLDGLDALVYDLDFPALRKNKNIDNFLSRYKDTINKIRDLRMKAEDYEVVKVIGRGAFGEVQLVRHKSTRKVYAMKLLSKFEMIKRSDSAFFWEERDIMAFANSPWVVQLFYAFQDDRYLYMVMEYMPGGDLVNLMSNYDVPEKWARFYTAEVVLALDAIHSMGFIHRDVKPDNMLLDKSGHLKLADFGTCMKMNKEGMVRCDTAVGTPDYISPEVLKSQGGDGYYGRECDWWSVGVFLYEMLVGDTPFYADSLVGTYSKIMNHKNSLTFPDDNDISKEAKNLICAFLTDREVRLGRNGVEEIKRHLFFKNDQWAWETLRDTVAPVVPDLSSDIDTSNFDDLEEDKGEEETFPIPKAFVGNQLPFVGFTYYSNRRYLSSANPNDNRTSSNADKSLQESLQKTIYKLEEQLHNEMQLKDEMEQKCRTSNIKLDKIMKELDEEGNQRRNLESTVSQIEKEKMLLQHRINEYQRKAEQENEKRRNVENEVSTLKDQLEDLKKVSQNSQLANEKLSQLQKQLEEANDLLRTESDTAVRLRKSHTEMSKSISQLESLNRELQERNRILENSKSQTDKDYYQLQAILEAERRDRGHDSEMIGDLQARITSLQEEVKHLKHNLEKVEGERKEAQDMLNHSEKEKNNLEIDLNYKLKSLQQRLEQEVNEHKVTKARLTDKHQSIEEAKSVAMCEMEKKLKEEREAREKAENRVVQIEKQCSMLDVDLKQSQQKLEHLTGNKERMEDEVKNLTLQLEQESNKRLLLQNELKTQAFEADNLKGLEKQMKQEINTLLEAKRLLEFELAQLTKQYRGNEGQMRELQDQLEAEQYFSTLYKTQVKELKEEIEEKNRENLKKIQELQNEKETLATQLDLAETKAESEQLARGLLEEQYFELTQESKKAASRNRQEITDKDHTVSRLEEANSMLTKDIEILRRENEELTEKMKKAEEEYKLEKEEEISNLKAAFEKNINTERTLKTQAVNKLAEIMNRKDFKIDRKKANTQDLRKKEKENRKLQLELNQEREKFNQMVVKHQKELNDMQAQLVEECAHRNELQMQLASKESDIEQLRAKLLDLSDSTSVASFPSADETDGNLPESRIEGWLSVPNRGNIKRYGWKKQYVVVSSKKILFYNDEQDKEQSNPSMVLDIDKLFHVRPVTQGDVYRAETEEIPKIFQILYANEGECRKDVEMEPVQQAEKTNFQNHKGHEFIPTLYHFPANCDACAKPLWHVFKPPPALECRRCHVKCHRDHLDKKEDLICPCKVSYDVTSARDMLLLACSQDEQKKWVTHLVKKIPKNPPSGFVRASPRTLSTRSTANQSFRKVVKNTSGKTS

[32] = target: protein kinases (Homo sapiens, UniProt Q13882); details: BRK(h)
[33] = target: protein kinases (Homo sapiens, UniProt Q14012); details: CaMKI(h)
[34] = target: protein kinases (Homo sapiens, UniProt Q14680); details: MELK(h)
[35] = target: protein kinases (Homo sapiens, UniProt Q15303); details: ErbB4(h)
[36] = target: protein kinases (Homo sapiens, UniProt Q15418); details: Rsk1(h)
[37] = target: protein kinases (Homo sapiens, UniProt Q16832); details: DDR2(h)
[38] = target: protein kinases (Homo sapiens, UniProt Q96SB4); details: SRPK1(h)
[39] = target: protein kinases (Homo sapiens, UniProt Q99683); details: ASK1(h)
[40] = target: protein kinases (Homo sapiens, UniProt Q9H422); details: HIPK3(h)
[41] = target: protein kinases (Homo sapiens, UniProt Q9UEE5); details: DRAK1(h)
[42] = system: protein kinases; details: MAPK1(h)

C#Cc1cccc(Nc2nc3cc(C(=O)O)ccc3c3cncnc23)c1 [compound A2]
activity at 0.5 µM [1]: 110% | activity at 0.5 µM [2]: 12% | activity at 0.5 µM [3]: 101% | activity at 0.5 µM [4]: 91% | activity at 0.5 µM [5]: 90% | activity at 0.5 µM [6]: 139% | activity at 0.5 µM [7]: 174% | activity at 0.5 µM [8]: 109% | activity at 0.5 µM [9]: 109% | activity at 0.5 µM [10]: 111% | activity at 0.5 µM [11]: 110% | activity at 0.5 µM [12]: 110% | activity at 0.5 µM [13]: 114% | activity at 0.5 µM [14]: 101% | activity at 0.5 µM [15]: 101% | activity at 0.5 µM [16]: 109% | activity at 0.5 µM [17]: 90% | activity at 0.5 µM [18]: 80% | activity at 0.5 µM [19]: 104% | activity at 0.5 µM [20]: -1% | activity at 0.5 µM [21]: 17% | activity at 0.5 µM [22]: 118% | activity at 0.5 µM [23]: 77% | activity at 0.5 µM [24]: 118% | activity at 0.5 µM [25]: 77% | activity at 0.5 µM [26]: 144% | activity at 0.5 µM [27]: 136% | activity at 0.5 µM [28]: 111% | activity at 0.5 µM [29]: 106% | activity at 0.5 µM [30]: 46% | activity at 0.5 µM [31]: 97% | activity at 0.5 µM [32]: 110% | activity at 0.5 µM [33]: 104% | activity at 0.5 µM [34]: 49% | activity at 0.5 µM [35]: 126% | activity at 0.5 µM [36]: 78% | activity at 0.5 µM [37]: 109% | activity at 0.5 µM [38]: 66% | activity at 0.5 µM [39]: 116% | activity at 0.5 µM [40]: 10% | activity at 0.5 µM [41]: 62% | % activity at 0.5 μM [42]: 95%

From patent US9062043B2, “Fused tricyclic compounds as serine-threonine protein kinase and PARP modulators” (SENHWA BIOSCIENCES, INC., priority 2006, dated 2015)
